Experimental data taken from patent publication US20240197727A1, “SOLID DISPERSIONS COMPRISING AMORPHOUS PIMOBENDAN AND ONE OR MORE STABILIZING POLYMERS” (Boehringer Ingelheim Vetmedica GmbH, priority 2022, published 2024).
Converted amounts (≈) assume the structure as drawn.

Experiments:
[1] = Thermodynamic (equilibrium) solubility at 37° C., immersed UV probes; type: physicochemical; settings: aqueous buffer, thermodynamic from solid
[2] = pH 5; cited from earlier work

## COc1ccc(-c2nc3ccc(C4=NNC(=O)CC4C)cc3[nH]2)cc1 (stereo not drawn) [Crystalline pimobendan]
[1]; pH 3.0 (maleic acid buffer)
  solubility thermodynamic: 19.5 µg/mL (≈ 58.3 µM)
[1]; pH 6.5 (phosphate buffer)
  solubility thermodynamic: 0.3 µg/mL (≈ 0.897 µM)
[2]
  Solubility (amount that dissolves) in water: about 1 mg/liter
